The numbers were not newly measured in patent US12673009B2, “Dental material” (King's College London, priority 2020, dated 2026), which cites them from elsewhere.

The conditions of data set [1]: Tylkowski et al., 2013.

Molecules are shown by their SMILES.

As to `[Li]` [lithium], the “safe therapeutic range of blood levels for patients on lithium therapies” value was 4.2-8.3 ppm. Moreover, the “lithium concentration reported to be toxic” value in data set [1] was ~700 ppm.
